Consider one compound from patent US4080467A, “Pharmaceutical compositions comprising 1,3-dithiolan-2-ylidene malonate derivatives” (Nihon Nohyaku Co., Ltd., priority 1976, dated 1978).

Assay [1] relates to acute liver damage associated with discrete lobular necrosis (D-galactosamine). Kind of assay: Protective effect on acute hepatitis with mesenchymal reaction and discrete lobular necrosis (D-galactosamine model). The assay is classed as in vivo, male rat (SD strain). The note with it: 100 mg/kg oral 6 h before D-galactosamine. As to the method: D-Galactosamine is a compound which induces a discrete lobular necrosis associated with mesenchymal reaction similar to the change observed in human viral hepatitis, so that it is frequently used in producing a model for viral hepatitis.
The compound of this invention or anethol trithion was administered orally to the male rat (SD strain) at the dose of 100 mg/kg. Six hours after it, D-galacetosamine was intraperitoneally administered at the dose of 600 mg/kg. Four hours after it, an additional 300 mg/kg was administered intraperitoneally. Eight hours after it, the animals were sacrificed to collect the blood samples. P-GPT activity and triglyceride in the liver were measured to evaluate the effect of the compound of this invention.

The subject of assay [2] is Chronic Liver Damage (thioacetamide). Kind of assay: Therapeutic effect on chronic liver damage (thioacetamide model), BSP test. It counts as in vivo, rats (Sprague Dawley strain). Particulars: 12 times TAA 100 mg/kg, then diet + 0.2% compound. As to the method: In the tests of this Example, TAA was repeatedly administered to animals to prepare test animals suffering from somewhat chronic liver damages, and then the present compounds were administered thereto to know whether or not the compounds were effective against chronic hepatitis.
The degree of the liver damage and the therapeutic effects of the compounds were evaluated according to BSP test. The BSP test is a method in which BSP (sulfobromophthalein sodium), a dye known to be quickly metabolized in and excreted from the liver, is intravenously injected into animals and, after a definite period of time, the blood is taken out to measure the amount of BSP remaining in the plasma. In case the animals are suffering from the liver damage, the dye will remain, according to the degree of the damage, at the stage where a major portion of BSP is metabolized and excreted in the case of normal animals.
Five groups of rats (Sprague Dawley strain) were treated as follows:
Group A: The rats were orally administered with 100 mg/kg of thioacetamide,at 3 days intervals for 36 days (12 times of the administration), then were submitted for 10 days to a normal diet.
Group B: The rats were orally administered with 100 mg/kg of thioacetamide at 3 days intervals for 36 days (12 times of the administration), then were submitted for 10 days to the normal diet + 0.2% of compound 4.
Group C: The rats were orally administered with 100 mg/kg of thioacetamide at 3 days intervals for 36 days (12 times of the administration) then were submitted for 10 days to the normal diet + 0.2% of compound 2.
Group D: The rats were orally administered with 100 mg/kg of thioacetamide at 3 days intervals for 36 days (12 times of the administration) then were submitted for 10 days to the normal diet + 0.2% of anethol trithion.
Group E: The rats were submitted to the normal diet as the control.
Five rats were sacrified from each group at appropriate intervals for BSP (sulfobromophthalein) test, the results of which were shown as amounts (mg) of BSP remaining in 1 dl of plasma.

A further assay relates to fatty liver (ethionine). The assay is described as follows: Effect on fatty liver (ethionine model). It counts as in vivo, male mice (4 week-old, dd-strain). The note with it: diet plus 0.2% ethionine and 0.2% compound, 5 days. An excerpt: There are known many factors inducing fatty liver. But, the fatty liver is grouped into a couple of patterns from the mechanism of lipid accumulation or metabolism of lipoprotein in the liver. Ethionine is a typical compound inducing fatty liver. It inhibits RNA and protein syntheses and destructs polysome of the liver cell. Fatty liver is induced by the inhibition of protein synthesis and the disturbance of lipoprotein secretion.
Usually, fatty liver is closely related to the accumulation of triglyceride in the liver. In the present example, the degree of fatty liver and protective or therapeutic effect against the fatty liver was evaluted by measurement of triglyceride content in the liver.
The animals used in the test were 4 week-old male mice (dd-strain).
The mice were submitted for 5 days to a normal diet (control), to the normal diet plus 0.2% ethionine (positive control), to the normal diet plus 0.2% ethionine and 0.2% of the compound of this invention, or to the normal diet plus 0.2% ethionine and 0.2% methionine which was the referential diet. At the end of the period of 5 days, content of triglyceride in the liver was studied colorimetrically by chromotropic acid method and the result was represented as triolein content (mg/g-liver).

Assay [3] can be described thus: Effect on glucose metabolism (blood sugar after glucose load). The assay is classed as in vivo, mice. The note with it: for Blood Sugar: 250 mg/kg oral 6 h before glucose 4.0 g/kg. The method, then:
The test compounds dissolved in olive oil and administered orally at the dose of 250 mg/kg to the mice. After 6 hours, 4.0 g/kg of glucose was orally administered. The same amount of glucose was given to the control animals. 0.02 ml of blood was taken from caudal vein of the mice at 30, 60, 90 and 120 min. after glucose administration. Blood sugar was measured by the procedure of Somogyi-Nelson. Number of animals used was 5 to 6 mice for each treatment.

With `CC(C)OC(=O)C(C(=O)OC(C)C)=C1SCCS1` [Compound 4, Diisopropyl 1,3-dithiolan-2-yliden malonate], in assay [1], the Triglyceride in liver was 4.6 ± 0.73 mg/g. The same compound had a p-GPT in assay [1] of 63±23 Karmen unit. The “Concentration of BSP in plasma” value was found to be 7.6 ± 1.1 mg/dL in assay [2] (2 Days), 3.8 ± 0.5 mg/dL in assay [2] (5 Days) and 0.3 ± 0.1 mg/dL in assay [2] (10 Days). In addition, the “Triglyceride (content in the liver, as triolein)” value in the assay on fatty liver (ethionine) was 10.4 ± 1.6 mg/g. In addition, the “Blood Sugar (percent of 0 min value)” value in assay [3] (0 min) is reported as 100%; in assay [3] (30 min), 192%; in assay [3] (60 min) it was 173%; in assay [3] (90 min), 142%; in assay [3] (120 min), 113%. Further, the “Blood Sugar” value in assay [3] (0 min) stood at 134 ± 24.8 mg/dL; in assay [3] (30 min), 258 ± 22.2 mg/dL; in assay [3] (60 min) it was 232 ± 13.0 mg/dL; in assay [3] (90 min), 190 ± 23.6 mg/dL; in assay [3] (120 min) it was 152 ± 23.4 mg/dL.
